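Values below derive from 48-hour exposures of cells grown in 96-well plates, with endpoints linearly interpolated between the two concentrations bracketing the appropriate inhibition level. GI50 marks 50% less growth.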 Activity calls are given as the source filed them. Rule as the data show it: active = GI50 up to about 1.1 µM and inactive = higher.

Test systems include 786-0; NCI-H226; NCI-H460; SN12C; SF-295; TK-10; SK-MEL-2; SK-OV-3; K562; OVCAR-3; CCRF-CEM; UACC-257; M14; RPMI-8226; UO-31; IGROV-1; MDA-MB-231; Hs-578T; MDA-N.
Common to all, as to test: inhibition of tumour cell growth, NCI panel, 48 h

On to `COC(=O)N1[C@H]2Cc3c(OC)c(C)c(OC)c(OC)c3[C@@H]1/C(=C\c1cc(OC)c(OC)c(C)c1OC)N(Cc1ccccc1)C2=O`, for which the GI50 was 54 µM (inactive) in the assay with 786-0; 0.23 µM (active) in the assay on NCI-H226; 13.2 µM (inactive) in the assay on NCI-H460; 40.6 µM (inactive) in the assay on SN12C; 39 µM (inactive) in the assay on SF-295; 33.3 µM (inactive) with TK-10. In addition, the GI50 with SK-MEL-2 is 24.7 µM (inactive); with SK-OV-3, 57.3 µM (inactive); with K562 it was 26.2 µM (inactive); in the assay with OVCAR-3, 32.7 µM (inactive); with CCRF-CEM, 28.6 µM (inactive); in the assay on UACC-257 it was 23 µM (inactive). Further, the GI50 in the assay with M14 is 29.7 µM (inactive); in the assay with RPMI-8226, 20.9 µM (inactive); in the assay with UO-31, 18.7 µM (inactive); with IGROV-1, 95.3 µM (inactive).
On to `COc1cc(OCc2nc3cc(C(F)(F)F)ccc3nc2-c2ccccc2)cc(OC)c1OC`, for which the GI50 with 786-0 was 96.2 µM (inactive); in the assay on NCI-H226, > 100 µM (inactive); in the assay with NCI-H460, > 100 µM (inactive); with SF-295 it was 47.3 µM (inactive); in the assay with TK-10, 70.3 µM (inactive); with SK-MEL-2, > 100 µM (inactive). Besides, the GI50 was > 100 µM (inactive) in the assay with SK-OV-3; 61.9 µM (inactive) in the assay with K562; > 100 µM (inactive) with OVCAR-3; > 100 µM (inactive) in the assay on CCRF-CEM; > 100 µM (inactive) with UACC-257; > 100 µM (inactive) in the assay on MDA-MB-231. For the same compound, the GI50 is 55.6 µM (inactive) with Hs-578T; 45.4 µM (inactive) in the assay on M14; 15.5 µM (inactive) in the assay with RPMI-8226; > 100 µM (inactive) in the assay with UO-31; > 100 µM (inactive) in the assay with IGROV-1.
Turning to `O=C(Cc1ccccc1)NN1C(=O)C(Cl)C1c1ccc(O)cc1` (stereo not given), the GI50 with 786-0, in the assay on NCI-H226, in the assay on NCI-H460, with SN12C, in the assay on SF-295 and with TK-10 was > 100 µM (inactive) each time. The GI50 in the assay with SK-MEL-2, in the assay with SK-OV-3, in the assay with K562, in the assay with OVCAR-3, in the assay with CCRF-CEM and in the assay on UACC-257 was > 100 µM (inactive) throughout. In addition, the GI50 was > 100 µM (inactive) with M14, > 100 µM (inactive) with RPMI-8226, 64.7 µM (inactive) in the assay with UO-31 and > 100 µM (inactive) in the assay with IGROV-1.
For `O=C1N(c2ccccc2)C2(c3ccccc3)CC3CCCC13S2` (stereo not given), the GI50 in the assay with 786-0 was 78.9 µM (inactive); with NCI-H226 it was 63.4 µM (inactive); in the assay on SN12C, 96.2 µM (inactive); in the assay on SF-295 it was 86.1 µM (inactive); in the assay with TK-10, 0.249 µM (active); in the assay on SK-MEL-2, 14.4 µM (inactive). The GI50 with SK-OV-3 is > 100 µM (inactive); in the assay with K562 it was 38.7 µM (inactive); in the assay on OVCAR-3 it was 55.5 µM (inactive); with CCRF-CEM, 43.3 µM (inactive); in the assay on UACC-257, 16.7 µM (inactive); with MDA-MB-231, 72.1 µM (inactive). For the same compound, the GI50 in the assay on Hs-578T is 57.9 µM (inactive); in the assay on M14, > 100 µM (inactive); with RPMI-8226, 27.5 µM (inactive); with UO-31, 78.9 µM (inactive); in the assay with IGROV-1 it was 78 µM (inactive).
As for `O=C(/C=C/c1ccc(Cl)cc1)c1nc2ccccc2[nH]1`, the GI50 is 13 µM (inactive) in the assay with 786-0; 27.5 µM (inactive) in the assay with NCI-H226; 53 µM (inactive) in the assay with NCI-H460; 37.2 µM (inactive) with SN12C; 22 µM (inactive) in the assay with SF-295; 14.5 µM (inactive) in the assay with TK-10. For the same compound, the GI50 in the assay on SK-MEL-2 was > 100 µM (inactive); in the assay on SK-OV-3, 21.7 µM (inactive); in the assay on K562, 5.58 µM (inactive); with OVCAR-3 it was 12.9 µM (inactive); in the assay on CCRF-CEM, 3.54 µM (inactive); in the assay on UACC-257 it was 29 µM (inactive). In addition, the GI50 is 23.1 µM (inactive) in the assay with MDA-MB-231; 72.1 µM (inactive) with Hs-578T; 31.8 µM (inactive) with M14; 2.19 µM (inactive) in the assay with RPMI-8226; 10.9 µM (inactive) with UO-31; 38.6 µM (inactive) with IGROV-1.
For the compound `CCOC(=O)C1S/C(=N\c2ccc(Cl)c(Cl)c2)N=C1C` (stereo not given), the GI50 in the assay with 786-0 was 17.5 µM (inactive); in the assay on NCI-H226, 23.4 µM (inactive); in the assay with NCI-H460 it was 49.8 µM (inactive); in the assay with SN12C it was 19.6 µM (inactive); in the assay with SF-295, 29.7 µM (inactive); in the assay on TK-10, 76.7 µM (inactive). Further, the GI50 is 95.1 µM (inactive) in the assay with SK-MEL-2; 53.8 µM (inactive) with SK-OV-3; 13.4 µM (inactive) with K562; 17.9 µM (inactive) with OVCAR-3; 13.2 µM (inactive) in the assay on CCRF-CEM; 87.1 µM (inactive) in the assay on UACC-257. For the same compound, the GI50 is 34.6 µM (inactive) in the assay with M14, 17.8 µM (inactive) with RPMI-8226, 92.9 µM (inactive) in the assay on UO-31 and 48.8 µM (inactive) in the assay on IGROV-1.
For the compound `C(=N\NC1=NCCCN1)/c1ccc(-c2cn3cc(/C=N/NC4=NCCCN4)ccc3n2)cc1`, the GI50 in the assay with 786-0 is 18.9 µM (inactive); with NCI-H226, 45.3 µM (inactive); with NCI-H460, 7.23 µM (inactive); in the assay with SN12C it was > 100 µM (inactive); with SF-295, > 100 µM (inactive); in the assay with TK-10, > 100 µM (inactive). The GI50 with SK-MEL-2 is > 100 µM (inactive); in the assay on SK-OV-3, > 100 µM (inactive); with K562, 38.4 µM (inactive); in the assay with OVCAR-3 it was > 100 µM (inactive); in the assay with CCRF-CEM, > 41.9 µM (inactive); in the assay on UACC-257, > 100 µM (inactive). The GI50 in the assay on MDA-MB-231 is > 72.6 µM (inactive); with MDA-N, > 100 µM (inactive); in the assay on M14, > 81.1 µM (inactive); with RPMI-8226, > 27.9 µM (inactive); with UO-31 it was > 100 µM (inactive); in the assay with IGROV-1, 50.6 µM (inactive).
For the compound `[O-][n+]1ccccc1Sc1nc(Sc2cccc[n+]2[O-])nc(Sc2cccc[n+]2[O-])n1`, the GI50 with 786-0 is 1.27 µM (inactive); in the assay with NCI-H226, 2.42 µM (inactive); in the assay with NCI-H460 it was 1.88 µM (inactive); with SN12C it was 1.81 µM (inactive); in the assay on SF-295, 3.14 µM (inactive); in the assay on TK-10, 1.76 µM (inactive). In addition, the GI50 in the assay on SK-MEL-2 was 1.8 µM (inactive); in the assay on SK-OV-3, 7.24 µM (inactive); in the assay with K562, 0.279 µM (active); in the assay with OVCAR-3, 1.58 µM (inactive); in the assay on CCRF-CEM, 0.198 µM (active); in the assay with UACC-257, 2.4 µM (inactive). Moreover, the GI50 was 1.38 µM (inactive) in the assay on MDA-MB-231; 2.08 µM (inactive) in the assay on Hs-578T; 1.26 µM (inactive) in the assay with M14; 0.385 µM (active) with RPMI-8226; 1.77 µM (inactive) in the assay on UO-31; 0.54 µM (active) in the assay with IGROV-1.
`C=C(C)C1CCC2(C)CC1c1c(c(C)cc3c1[nH]c1ccccc13)O2` (stereo not given): the GI50 in the assay on 786-0 is > 25 µM (inactive); with NCI-H226, 16.7 µM (inactive); in the assay on NCI-H460 it was > 25 µM (inactive); in the assay on SN12C it was > 25 µM (inactive); with SK-MEL-2, > 25 µM (inactive); in the assay on SK-OV-3 it was > 25 µM (inactive). The GI50 was 12 µM (inactive) with K562; > 25 µM (inactive) with OVCAR-3; 24.3 µM (inactive) in the assay on CCRF-CEM; > 25 µM (inactive) in the assay on M14; > 25 µM (inactive) in the assay on RPMI-8226; 12.6 µM (inactive) in the assay on UO-31. In addition, the GI50 in the assay on IGROV-1 was > 25 µM (inactive).
Regarding `C=CCOC(=O)CCCCCCCCCCCCCCCOC(=O)c1c(CCC[C@@H](C)O[Si](C)(C)C(C)(C)C)nc([O-])[n+]2c1CC[C@H]2CC1(CC/C=C\[C@H](CC)O[Si](C(C)C)(C(C)C)C(C)C)OCCO1`, the GI50 in the assay with 786-0 was 26.7 µM (inactive); in the assay on NCI-H226, > 100 µM (inactive); in the assay on NCI-H460 it was > 100 µM (inactive); with SN12C it was 34 µM (inactive); in the assay on SF-295, 48.8 µM (inactive); with TK-10 it was > 100 µM (inactive). Further, the GI50 in the assay on SK-MEL-2 is 37.2 µM (inactive); in the assay with SK-OV-3, > 100 µM (inactive); in the assay with OVCAR-3 it was 50.8 µM (inactive); in the assay with CCRF-CEM, 14.4 µM (inactive); with UACC-257, > 100 µM (inactive); in the assay on MDA-MB-231, 18.6 µM (inactive). Further, the GI50 is 60.8 µM (inactive) in the assay with MDA-N, > 100 µM (inactive) with M14, 48.8 µM (inactive) in the assay with RPMI-8226 and 28.4 µM (inactive) in the assay with UO-31.
Turning to `OC(c1cccnc1)C(F)(F)c1nc2ccccc2o1` (stereo not given), the GI50 in the assay with 786-0 is > 100 µM (inactive); in the assay with NCI-H226, > 100 µM (inactive); with NCI-H460 it was > 100 µM (inactive); in the assay on TK-10 it was > 100 µM (inactive); in the assay with SK-MEL-2, > 100 µM (inactive); in the assay with K562, 56.5 µM (inactive). The GI50 in the assay on CCRF-CEM, in the assay with UACC-257, in the assay with MDA-MB-231, in the assay on Hs-578T, with RPMI-8226 and with UO-31 was > 100 µM (inactive) each time. Also, in the assay with IGROV-1, the GI50 was > 100 µM (inactive).
With `NC(=S)N/N=C1\CCc2ccccc2C1`, the GI50 was > 100 µM (inactive) with 786-0; 32.2 µM (inactive) with NCI-H226; > 100 µM (inactive) in the assay on NCI-H460; > 100 µM (inactive) in the assay with SN12C; > 100 µM (inactive) with SF-295; > 100 µM (inactive) with TK-10. Moreover, the GI50 with SK-OV-3 is > 100 µM (inactive); in the assay with K562 it was > 100 µM (inactive); in the assay with OVCAR-3 it was > 100 µM (inactive); with CCRF-CEM, 70.8 µM (inactive); in the assay with UACC-257, > 100 µM (inactive); with MDA-MB-231, > 100 µM (inactive). For the same compound, the GI50 with MDA-N, in the assay on M14, in the assay with RPMI-8226, in the assay with UO-31 and in the assay on IGROV-1 was > 100 µM (inactive) throughout.
